The record followed here is US10759751B2, “Substituted spirocyclohexanes as muscarinic M1 receptor and/or M4 receptor agonists” (Heptares Therapeutics Limited, priority 2016, dated 2020).

One may read the Emax as the maximal effect, on the per cent scale that the assay sets.

The target in test [1] is T1, human muscarinic M1 receptor (Homo sapiens, UniProt P11229).
T1 sequence (P11229 1-460): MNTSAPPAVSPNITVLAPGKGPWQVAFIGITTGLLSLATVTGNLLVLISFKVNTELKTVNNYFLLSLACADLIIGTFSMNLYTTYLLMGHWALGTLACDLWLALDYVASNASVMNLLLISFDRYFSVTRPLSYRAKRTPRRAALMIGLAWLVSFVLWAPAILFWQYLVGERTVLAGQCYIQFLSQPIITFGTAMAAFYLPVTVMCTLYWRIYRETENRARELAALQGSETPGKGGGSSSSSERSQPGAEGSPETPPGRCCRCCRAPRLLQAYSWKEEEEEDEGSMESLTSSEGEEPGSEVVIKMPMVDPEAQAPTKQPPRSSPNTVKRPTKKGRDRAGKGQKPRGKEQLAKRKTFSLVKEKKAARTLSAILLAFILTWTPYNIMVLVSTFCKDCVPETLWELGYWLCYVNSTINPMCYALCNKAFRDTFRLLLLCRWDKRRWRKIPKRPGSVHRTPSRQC
Put plainly: Alphascreen Surefire phospho-ERK1/2 functional assay, M1. Type of test: cell-based. Conditions: for EC50: CHO cells stably expressing human M1, phospho-ERK1/2, read-out: pEC50 M1 (converted); for Emax: CHO, read-out: M1 % Emax cf. ACh, CHO cells stably expressing human M1, Emax relative to ACh; for selectivity for the M1 receptor relative to the M4 receptor: M1 versus M4, in words. As to the method: (§1) Functional assays were performed using the Alphascreen Surefire phospho-ERK1/2 assay (Crouch & Osmond, Comb. Chem. High Throughput Screen, 2008). ERK1/2 phosphorylation is a downstream consequence of both Gq/11 and Gi/o protein coupled receptor activation, making it highly suitable for the assessment of M1, M3 (Gq/11 coupled) and M2, M4 receptors (Gi/o coupled), rather than using different assay formats for different receptor subtypes. CHO cells stably expressing the human muscarinic M1, M2, M3 or M4 receptor were plated (25K/well) onto 96-well tissue culture plates in MEM-alpha+10% dialysed FBS. Once adhered, cells were serum-starved overnight. Agonist stimulation was performed by the addition of 5 μL agonist to the cells for 5 min (37° C.). Media was removed and 50 μL of lysis buffer added. After 15 min, a 4 μL sample was transferred to 384-well plate and 7 μL of detection mixture added. Plates were incubated for 2 h with gentle agitation in the dark and then read on a PHERAstar plate reader.
(§2) pEC50 and Emax figures were calculated from the resulting data for each receptor subtype.

Test [2] addresses T2, human muscarinic M4 receptor (Homo sapiens, UniProt P08173).
T2 construct: expressed in transfected cells
T2 sequence (P08173 1-479): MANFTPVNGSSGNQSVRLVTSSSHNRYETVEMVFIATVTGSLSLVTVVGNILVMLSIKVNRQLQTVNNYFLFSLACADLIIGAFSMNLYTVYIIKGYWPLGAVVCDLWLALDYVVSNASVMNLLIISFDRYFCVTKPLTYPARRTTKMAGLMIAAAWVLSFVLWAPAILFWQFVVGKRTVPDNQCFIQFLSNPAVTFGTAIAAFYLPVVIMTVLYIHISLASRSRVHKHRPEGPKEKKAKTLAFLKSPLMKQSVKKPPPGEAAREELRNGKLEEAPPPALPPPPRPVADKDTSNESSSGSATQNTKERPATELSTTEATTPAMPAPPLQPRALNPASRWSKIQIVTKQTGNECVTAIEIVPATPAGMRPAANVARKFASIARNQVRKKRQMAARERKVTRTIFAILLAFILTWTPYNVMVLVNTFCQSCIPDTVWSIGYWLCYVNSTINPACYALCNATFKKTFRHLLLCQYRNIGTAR
Description: Alphascreen Surefire phospho-ERK1/2 functional assay, M4. Type of test: cell-based. Conditions: for EC50: CHO cells stably expressing human M4, phospho-ERK1/2, read-out: pEC50 M4 (converted); for Emax: CHO, read-out: M4 % Emax cf. ACh, CHO cells stably expressing human M4, Emax relative to ACh. As to the method: as §1, §2

Consider `CCOC(=O)N1CCN(C2CCC(C#N)(c3ccccc3)CC2)CC(O)C1` (mixture of isomers) [3-26 mixture of isomers], for which, in test [1], the EC50 is 40.7 nM and the Emax worked out at 85%.
For `CCOC(=O)N1CC2(CCN(C3CCC4(CC3)C(=O)Nc3ccccc34)C2)C1` (mixture of isomers) [10-1 mixture of isomers], in test [1], the EC50 was 38.9 nM and the Emax worked out at 39%. In test [2], the EC50 is above 20000 nM and the Emax was 8%.
In the case of `CCOC(=O)N[C@@H]1CCN(C2CCC(C#N)(c3cccc(F)c3)CC2)C1` (single isomer, unassigned) [1-6 Isomer 2], the figures for the EC50 in test [1] and in test [2] were 229 nM and 1780 nM, respectively. In addition, the Emax in test [1] turned out to be 116%; in test [2], 49%.
On the same counts, the results for `CCOC(=O)N[C@H]1CCN(C2CCC(C#N)(c3ccc(Cl)cn3)CC2)C1` (single isomer, unassigned) [1-15 Isomer 2] are 269 nM, above 20000 nM, 39% and 7%.
On the same counts, the results for `CCOC(=O)N[C@@H]1CCN(C2CCC3(CC2)C(=O)Nc2ccccc23)C1` (single isomer, unassigned) [2-2 isomer 1] are 158 nM, 871 nM, 103% and 84%.
Regarding `CCOC(=O)N[C@H]1CCN(C2CCC3(CC2)C(=O)Nc2c(C)cccc23)C1` (single isomer, unassigned) [2-3 isomer 1], in test [1], the EC50 is 77.6 nM and the Emax was found to be 32%. In test [2], the EC50 was above 20000 nM and the Emax is 1%.
As for `CCOC(=O)N[C@H]1CCN(C2CCC(C#N)(c3ccccc3)CC2)C1` (single isomer, unassigned) [Example 1-1], the “selectivity for the M1 receptor relative to the M4 receptor” value in test [1] was “highly selective for the M1 receptor relative to the M4 receptor”.
In the case of `CCOC(=O)N[C@H]1CCN(C2CCC(C#N)(c3cccc(F)c3)CC2)C1` (single isomer, unassigned) [Example 1-3], in test [1], the “selectivity for the M1 receptor relative to the M4 receptor” value was “highly selective for the M1 receptor relative to the M4 receptor”.
On the same count and under the same terms, in the case of `CCOC(=O)N[C@H]1CCN(C2CCC(C#N)(c3ccc(F)cc3)CC2)C1` (single isomer, unassigned) [Example 1-4] it was “highly selective for the M1 receptor relative to the M4 receptor”.
In the case of `CCOC(=O)N[C@H]1CCN(C2CCC(C#N)(c3cccc(C)c3)CC2)C1` (single isomer, unassigned) [Example 1-9], the “selectivity for the M1 receptor relative to the M4 receptor” value in test [1] is reported as “highly selective for the M1 receptor relative to the M4 receptor”.
Same read-out and setting: in the case of `CCOC(=O)N[C@H]1CCN(C2CCC(C#N)(c3cccc(Cl)c3)CC2)C1` (single isomer, unassigned) [Example 1-10] it was “highly selective for the M1 receptor relative to the M4 receptor”; in that of `CCOC(=O)N[C@H]1CCN(C2CCC3(CC2)C(=O)Nc2ccccc23)C1` (single isomer, unassigned) [Example 2-1], “highly selective for the M1 receptor relative to the M4 receptor”; in that of `CCOC(=O)N[C@H]1CCN(C2CCC3(CC2)C(=O)Nc2c(C)cccc23)C1` (single isomer, unassigned) [Example 2-3], “highly selective for the M1 receptor relative to the M4 receptor”.
On to `CCOC(=O)N[C@H]1CCN(C2CCC3(CC2)C(=O)Nc2cc(C)ccc23)C1` (single isomer, unassigned) [Example 2-4], for which, in test [1], the “selectivity for the M1 receptor relative to the M4 receptor” value was “highly selective for the M1 receptor relative to the M4 receptor”.
Same read-out and setting: the entry for `CCOC(=O)N[C@H]1CCN(C2CCC3(CC2)C(=O)Nc2ccc(C)cc23)C1` (single isomer, unassigned) [Example 2-5] is “highly selective for the M1 receptor relative to the M4 receptor”; for `CCOC(=O)N[C@H]1CCN(C2CCC3(CC2)C(=O)Nc2ccc(OC)cc23)C1` (single isomer, unassigned) [Example 2-10] it is “highly selective for the M1 receptor relative to the M4 receptor”.
Same read-out and setting: the entry for `CCOC(=O)N[C@H]1CCN(C2CCC3(CC2)C(=O)Nc2ncc(Cl)cc23)C1` (single isomer, unassigned) [Example 2-17] is “highly selective for the M1 receptor relative to the M4 receptor”; for `CCOC(=O)N[C@H]1CCN(C2CCC3(CC2)C(=O)Nc2cc(F)ccc23)C1` (stereo partly drawn) [Example 2-7, ethyl [(3S)-1-(6′-fluoro-2′-oxo-1′,2′-dihydrospiro[cyclohexane-1,3′-indol]-4-yl)pyrrolidin-3-yl]carbamate] it is “highly selective for the M1 receptor relative to the M4 receptor”; for `CCOC(=O)N[C@H]1CCN(C2CCC3(CC2)C(=O)Nc2ccc(F)cc23)C1` (stereo partly drawn) [Example 2-8, ethyl [(3S)-1-(5′-fluoro-2′-oxo-1′,2′-dihydrospiro[cyclohexane-1,3′-indol]-4-yl)pyrrolidin-3-yl]carbamate] it is “highly selective for the M1 receptor relative to the M4 receptor”.
Same read-out and setting: in the case of `CCOC(=O)N1CCCN(C2CCC(C#N)(c3ccc(OC)cn3)CC2)CC1` (stereo not drawn) [Example 3-19, ethyl 4-[4-(5-methoxypyridin-2-yl)-4-cyanocyclohexyl]-1,4-diazepane-1-carboxylate] it was “highly selective for the M1 receptor relative to the M4 receptor”; in that of `CCOC(=O)N1CCCN(C2CCC(C#N)(c3ccc(OCC)cn3)CC2)CC1` (stereo not drawn) [Example 3-20, ethyl 4-[4-cyano-4-(5-ethoxypyridin-2-yl)cyclohexyl]-1,4-diazepane-1-carboxylate], “highly selective for the M1 receptor relative to the M4 receptor”.
With `C#CCOC(=O)N1CCCN(C2CCC(C#N)(c3ccc(OC)cn3)CC2)CC1` (stereo not drawn) [Example 3-31, prop-2-yn-1-yl 4-[4-cyano-4-(5-methoxypyridin-2-yl)cyclohexyl]-1,4-diazepane-1-carboxylate], the “selectivity for the M1 receptor relative to the M4 receptor” value in test [1] is listed as “highly selective for the M1 receptor relative to the M4 receptor”.
On the same count and under the same terms, in the case of `CC#CCOC(=O)N1CCCN(C2CCC(C#N)(c3ccc(OC)cn3)CC2)CC1` (stereo not drawn) [Example 3-32, but-2-yn-1-yl 4-[4-cyano-4-(5-methoxypyridin-2-yl)cyclohexyl]-1,4-diazepane-1-carboxylate] it was “highly selective for the M1 receptor relative to the M4 receptor”; in that of `CCOC(=O)N1CCCN(C2CCC3(CC2)C(=O)Nc2ccc(C)cc23)CC1` (stereo not drawn) [Example 4-7, ethyl 4-(5′-methyl-2′-oxo-1′,2′-dihydrospiro[cyclohexane-1,3′-indol]-4-yl)-1,4-diazepane-1-carboxylate], “highly selective for the M1 receptor relative to the M4 receptor”.
The same measure, in the same setting: the entry for `CCOC(=O)N1CCCN(C2CCC3(CC2)C(=O)Nc2ccc(OC)cc23)CC1` (stereo not drawn) [Example 4-12, ethyl 4-(5′-methoxy-2′-oxo-1′,2′-dihydrospiro[cyclohexane-1,3′-indol]-4-yl)-1,4-diazepane-1-carboxylate] is “highly selective for the M1 receptor relative to the M4 receptor”.
Same read-out and setting: the entry for `CCOC(=O)N1CCCN(C2CCC(c3nc(CC)c(C)[nH]3)CC2)CC1` (stereo not drawn) [Example 5-1, ethyl 4-[4-(4-ethyl-5-methyl-1H-imidazol-2-yl)cyclohexyl]-1,4-diazepane-1-carboxylate] is “highly selective for the M1 receptor relative to the M4 receptor”.
